{"source": "paper PMC12541891", "about": "(MicrobiologyOpen, 2025)", "key": {"E. coli biofilm": {"tested_on": "E. coli biofilm", "assay": "Biofilm biomass by crystal violet (CV) assay", "format": "cell-based, Escherichia coli", "settings": "substance alone at MIC", "method": "(§1) For all bacterial strains considered in the study, biofilm was performed on a 96‐well plate inoculated with 200 µL of a bacterial suspension 1 × 10^6 CFU/mL and incubated 24 h at 37°C. After incubation for 4 h at 37°C, the medium was aspirated, non‐adherent cells were removed, washed with PBS and added with 200 µL of fresh medium. […] Similarly, to perform fungal biofilm, the different Candida species were grown for 24 h at 28°C on a multi‐wells plate, washed twice with sterile PBS, and then resuspended at 37°C in RPMI 1640 plus 10% FBS at 2.5 × 10^7 cells. After incubation for 3 h at 37°C in six‐well polystyrene plates, the medium was aspirated, non‐adherent cells were removed and washed with PBS.\n(§2) To quantify bacterial and Candida biofilm biomass, CV, a dye able to color the biofilm matrix, was used. Firstly, after the removal of supernatant and washing with PBS, biofilm was fixed adding 100 µL of 99% methanol for 15 min. Then, methanol was rinsed off and the plates were air‐dried. Subsequently, 100 µL of a 0.1% of CV solution were added to wells and, after 20 min of contact, the plates were washed under running tap water. To dissolve the bounded CV, 150 µL of 33% of glacial acetic acid were added to wells. The absorbance was measured at 590 nm using an automatic microplate reader, Tecan Sunrise (Tecan Group Ltd., Männedorf, Switzerland)."}, "ESBL-Ec biofilm": {"tested_on": "ESBL-Ec biofilm", "assay": "Biofilm biomass by crystal violet (CV) assay", "format": "cell-based, Escherichia coli", "settings": "substance alone at MIC", "method": "as §1, §2"}, "C. albicans biofilm [1]": {"tested_on": "C. albicans biofilm", "assay": "Biofilm biomass by crystal violet (CV) assay", "format": "cell-based, Candida albicans", "method": "as §1, §2"}, "C. krusei biofilm": {"tested_on": "C. krusei biofilm", "assay": "Biofilm biomass by crystal violet (CV) assay", "format": "cell-based, Candida krusei", "settings": "substance alone at MIC", "method": "as §1, §2"}, "Caco-2 cell line": {"tested_on": "Caco-2 cell line", "assay": "MTT cytotoxicity assay", "settings": "Caco-2, 24 h contact, 15-125 µg/mL tested", "method": "(§3) These cell lines were purchased from the American Type Culture Collection (ATCC HTB‐37, Rockville, USA) and stored in liquid nitrogen. T24 cells were cultured in RPMI, supplemented with 10% FBS, 2 mM glutamine, 100 U/mL penicillin, and 100 µg/mL streptomycin. A549 and Caco‐2 cells were cultured in DMEM, supplemented with 10% FBS, 100 U/mL penicillin and 100 μg/mL streptomycin. Cultures were incubated at 37°C in a humidified 5% CO2 atmosphere.\n(§4) In a 96‐well plate, 200 μL of cell suspension (10^4 cells/well) were added to each well and plates were incubated at 37°C, 5% CO2. […] Untreated cells were taken as control. After 24 h of treatment, culture medium was replaced with 200 μL of fresh medium added with MTT (5 mg/mL), then plates were incubated for 4 h at 37°C, 5% CO2 atmosphere. Afterward, culture medium with MTT was removed and 200 μl of DMSO were added to each well to dissolve the formazan crystals formed in living cells. After 15 min of incubation, the absorbance was measured at 570 nm, with the reference set at 620 nm, using the automatic microplate reader, Tecan Sunrise (Kumar et al. [2018]). Controls in all the experiments were: (i) wells without the substances assayed, as positive cells growth control; (ii) wells added with ethanol or DMSO in the same amounts in which the substances were suspended, as cells growth control in presence of the substances' solvents."}, "A549 cell line": {"tested_on": "A549 cell line", "assay": "MTT cytotoxicity assay", "settings": "A549, 24 h contact, 15-125 µg/mL tested", "method": "as §3, §4"}, "C. glabrata biofilm": {"tested_on": "C. glabrata biofilm", "assay": "Biofilm metabolic activity by XTT-reduction assay", "format": "cell-based, Candida glabrata", "method": "as §1\n(§5) The biofilm metabolic activity was evaluated by XTT assay, that highpoints the activity through the reduction of the tetrazolium salt to formazan. After the removal of supernatant and washing with PBS, a solution of XTT‐menadione solution were added to wells. The XTT‐menadione was prepared dissolving XTT powder in prewarmed PBS (37°C) at 0.5 g/L. The solution was sterilized through a 0.22 μm pore size filter. Before each assay, the XTT solution was thawed and supplemented with menadione, a 10 mM stock dissolved in acetone to a final concentration 1 μM. Plates were incubated for 3 h at 37°C in the dark and then the absorbance was measured at 492 nm using the microplate reader, Tecan Sunrise."}, "MRSA biofilm": {"tested_on": "MRSA biofilm", "assay": "Biofilm biomass by crystal violet (CV) assay", "format": "cell-based, Staphylococcus aureus", "method": "as §1, §2"}, "S. aureus biofilm": {"tested_on": "S. aureus biofilm", "assay": "Biofilm biomass by crystal violet (CV) assay", "format": "cell-based, Staphylococcus aureus", "settings": "substance alone at MIC", "method": "as §1, §2"}, "C. albicans biofilm [2]": {"tested_on": "C. albicans biofilm", "assay": "Biofilm metabolic activity by XTT-reduction assay", "format": "cell-based, Candida albicans", "method": "as §1, §5"}, "[3]": {"tested_on": "Staphylococcus aureus ATCC 6538", "assay": "MIC and MBC by microbroth dilution", "format": "cell-based", "method": "(§6) No substance was added, in one well, for growth control. A bacterial suspension of 1 × 10^8 CFU/mL was inoculated into all wells of the plate and incubated for 24 h at 37°C. […] The dilutions ranged from 4 to 2000 µg/mL for the substances. The inoculum size was about 2.5×10^3 cells/mL. The plates were incubated at 28°C for 24–48 h. The MIC was determined as the lowest substances' concentration where no visible bacterial or fungal growth was observed. […] Each antimicrobial assay was performed in triplicate."}, "[4]": {"tested_on": "methicillin resistant S. aureus (MRSA)", "assay": "MIC and MBC by microbroth dilution", "format": "cell-based", "settings": "Staphylococcus aureus", "method": "as §6"}, "[5]": {"tested_on": "Extended Spectrum-Beta-Lactamase producing E. coli (ESBL-Ec)", "assay": "MIC and MBC by microbroth dilution", "format": "cell-based", "settings": "Escherichia coli", "method": "as §6"}, "[6]": {"tested_on": "Escherichia coli MG1655 (ATCC 700926)", "assay": "MIC and MBC by microbroth dilution", "format": "cell-based", "method": "as §6"}, "C. glabrata DSY562": {"tested_on": "C. glabrata DSY562", "assay": "MIC and MFC by microbroth dilution", "format": "cell-based, Candida glabrata", "settings": "Nakaseomyces glabratus, DSY562", "method": "as §6"}, "C. tropicalis biofilm": {"tested_on": "C. tropicalis biofilm", "assay": "Biofilm metabolic activity by XTT-reduction assay", "format": "cell-based, Candida tropicalis", "method": "as §1, §5"}, "[7]": {"settings": "biofilm in formation, sub-MIC concentrations alone or in combination (Table 5), listed as C"}, "[8]": {"settings": "preformed biofilm (24 h), substance alone at MIC"}, "[9]": {"settings": "preformed biofilm, sub-MIC concentrations alone or in combination (Table 5), listed as C"}, "[10]": {"settings": "biofilm in formation (3 h), substance alone at MIC"}}, "note": "“And” between values parts separate entries of the source, which are not always exact repeats. Identical values can stand only once.", "data": [{"smiles": "Cc1ccc(C(C)C)cc1O", "note": "[Carvacrol, 2‐methyl‐5‐isopropyl phenol]", "values": [{"measurement": "Percentage of biomass reduction", "setting": "E. coli biofilm; biofilm in formation (4 h)", "result": 70.6, "unit": "%"}, {"measurement": "Percentage of biomass reduction", "setting": "E. coli biofilm; preformed biofilm (24 h)", "result": 62.2, "unit": "%"}, {"measurement": "Percentage of biomass reduction", "setting": "ESBL-Ec biofilm; biofilm in formation (4 h)", "result": 55.9, "unit": "%"}, {"measurement": "Percentage of biomass reduction", "setting": "ESBL-Ec biofilm; preformed biofilm (24 h)", "result": 59.6, "unit": "%"}, {"measurement": "Percentage of biomass reduction", "setting": "C. albicans biofilm [1]; [7]", "result": 53.5, "unit": "%"}, {"measurement": "Percentage of biomass reduction", "setting": "C. albicans biofilm [1]; [8]", "result": 36, "unit": "%"}, {"measurement": "Percentage of biomass reduction", "setting": "C. albicans biofilm [1]; [9]", "result": 29.6, "unit": "%"}, {"measurement": "Percentage of biomass reduction", "setting": "C. krusei biofilm; biofilm in formation (3 h)", "result": "18% and 18.4%"}, {"measurement": "Percentage of biomass reduction", "setting": "C. krusei biofilm; preformed biofilm (24 h)", "result": 39.2, "unit": "%"}, {"measurement": "concentrations significantly cytotoxic", "setting": "Caco-2 cell line", "result": "> 31000", "unit": "ng/mL"}, {"measurement": "concentrations significantly cytotoxic", "setting": "A549 cell line", "result": "> 31000", "unit": "ng/mL"}, {"measurement": "Percentage of metabolic activity reduction", "setting": "C. glabrata biofilm; [10]", "result": 92, "unit": "%"}, {"measurement": "Percentage of metabolic activity reduction", "setting": "C. glabrata biofilm; [7]", "result": 70, "unit": "%"}, {"measurement": "Percentage of metabolic activity reduction", "setting": "C. glabrata biofilm; [8]", "result": 91.0, "unit": "%"}, {"measurement": "Percentage of metabolic activity reduction", "setting": "C. glabrata biofilm; [9]", "result": 51.2, "unit": "%"}, {"measurement": "Percentage of biomass reduction", "setting": "MRSA biofilm; biofilm in formation (4 h), substance alone at MIC", "result": 26.7, "unit": "%"}, {"measurement": "Percentage of biomass reduction", "setting": "MRSA biofilm; biofilm in formation, sub-MIC concentrations alone or in combination (Table 5)", "result": 30, "unit": "%"}, {"measurement": "Percentage of biomass reduction", "setting": "MRSA biofilm; [8]", "result": 58, "unit": "%"}, {"measurement": "Percentage of biomass reduction", "setting": "S. aureus biofilm; biofilm in formation (4 h)", "result": 56.2, "unit": "%"}, {"measurement": "Percentage of biomass reduction", "setting": "S. aureus biofilm; preformed biofilm (24 h)", "result": 71.5, "unit": "%"}, {"measurement": "Percentage of metabolic activity reduction", "setting": "C. albicans biofilm [2]; [10]", "result": 91, "unit": "%"}, {"measurement": "Percentage of metabolic activity reduction", "setting": "C. albicans biofilm [2]; [7]", "result": 55.1, "unit": "%"}, {"measurement": "Percentage of metabolic activity reduction", "setting": "C. albicans biofilm [2]; [8]", "result": 93, "unit": "%"}, {"measurement": "Percentage of metabolic activity reduction", "setting": "C. albicans biofilm [2]; [9]", "result": 44.9, "unit": "%"}, {"measurement": "MBC", "setting": "[3]; ATCC6538", "result": 125, "unit": "µg/mL"}, {"measurement": "MIC", "setting": "[3]; ATCC6538, 24 h", "result": 125, "unit": "µg/mL"}, {"measurement": "MBC", "setting": "[4]", "result": 125, "unit": "µg/mL"}, {"measurement": "MIC", "setting": "[4]; 24 h", "result": 125, "unit": "µg/mL"}, {"measurement": "MBC", "setting": "[5]", "result": 125, "unit": "µg/mL"}, {"measurement": "MIC", "setting": "[5]; 24 h", "result": 125, "unit": "µg/mL"}, {"measurement": "MBC", "setting": "[6]", "result": 125, "unit": "µg/mL"}, {"measurement": "MIC", "setting": "[6]; 24 h", "result": 125, "unit": "µg/mL"}, {"measurement": "MFC", "setting": "C. glabrata DSY562", "result": 500, "unit": "µg/mL"}, {"measurement": "MIC", "setting": "C. glabrata DSY562", "result": 250, "unit": "µg/mL"}, {"measurement": "Percentage of metabolic activity reduction", "setting": "C. tropicalis biofilm; [10]", "result": 88.7, "unit": "%"}, {"measurement": "Percentage of metabolic activity reduction", "setting": "C. tropicalis biofilm; [7]", "result": 35.0, "unit": "%"}, {"measurement": "Percentage of metabolic activity reduction", "setting": "C. tropicalis biofilm; [8]", "result": 72.8, "unit": "%"}, {"measurement": "Percentage of metabolic activity reduction", "setting": "C. tropicalis biofilm; [9]", "result": 26.1, "unit": "%"}]}]}
